The values that follow come from US20230150951A1, “2,5- OR 2,6-DISUBSTITUTED HYDROQUINONE DERIVATIVES WITH AT LEAST ONE CARBOXY, SULFO OR AMIDO GROUP USEFUL AS MEDICAMENTS” (OM PHARMA SA, priority 2020, published 2023).

“Also recorded” adds a separate entry of the source.

This data set has as its system acute pancreatitis murine model. Briefly: Caerulein-induced acute pancreatitis murine model. The settings on record: for Schmidt Score (H&E): induced + vehicle = 10, non-induced = 0; for Pancreas IL33 level / Pancreas MPO activity / Pancreas TGF-B level: terminal pancreatic tissue; for Serum IL33 level / Serum TGF-B level / Serum amylase level / Serum lipase level: terminal serum; for pancreatic tissue levels of IL33: compared to the induced group; for Lipase activity in serum: pirfenidone 100 mg/kg, compounds 15 mg/k, vs vehicle treated animals. Also noted: Serum IL33 level / Serum TGF-B level: unit not given here. Type of data set: in vivo, Balb/c mice. The method, then: Therapeutic efficacy of the compounds according to the present invention was assessed on an acute pancreatitis murine model. Tissue samples were obtained to allow post in-life analysis of pancreatitis parameters. Plasma samples were also obtained to assess animal exposure levels after administration of the compounds.
Animals: A total of 70 female Balb/c mice aged 8-10 weeks weighing approximately 20-25 g were used for the study (Charles River). After 7 days acclimatization, they were allocated into the different groups. […] Cages, bedding, and water were sanitized before use. Animals were provided with Corn-o-cobs enrichment bedding to provide environment enrichment and nesting material. […] The animal holding room were maintained as follows—room temperature at 20-24° C., humidity at 30-70% and a 12 h light/dark cycle used. Although animals used in this study were immuno-competent, preparation of dosing solutions and dosing/weighing of animals were carried out in a sterile biosafety cabinet.
Final formulation was in 5% DMSO, 10% Solutol, 10% PEG400, 75% 0.9% Saline and pH adjusted to 7 with 0.5M NaOH solution.
Final formulation is in 5% DMSO, 10% Solutol, 10% PEG400, 75% 0.9% Saline and pH adjusted to 7 with 0.5M NaOH solution. For per os (PO) dosing IVc-059a is formulated in water. Drug solutions were formulated on the day of dosing.
The purposes of this study were to assess efficacy compounds in an acute pancreatitis model (14 days), generate tissue samples to allow post in-life analysis of pancreatitis parameters and generate four plasma samples to assess animal exposure levels after first and last injection obtained from blood samples taken 1 h and 24 h after first and last injection.
Study Design: On the first study day animals were randomly be assigned to treatment groups, ensuring an equal spread of bodyweight. Mice (except negative control group) were treated with test compounds were given 5 minutes prior to caerulein dosing, followed by injection with caerulein at […] via intraperitoneal route (IP) daily during the study.
Treatment of test compounds were given 5 minutes prior to caerulein dosing.
Sampling and post in-life analyses: at times indicated above a whole blood sample (60 μl) were taken from the lateral tail vein into tubes coated with K2-EDTA. Plasma samples were prepared and stored frozen at −20° C. Plasma samples were sent to client bioanalysis provider Eurofins (FR) for quantification of compound.
Terminal Sampling: Prior to termination animals were weighed. Terminal study animals were culled via CO2 inhalation. A terminal blood sample was taken via cardiac puncture and plasma prepared. Lipase and Amylase activities were measured via ELISA using commercially available ELISA kits. Remaining plasma was stored for future cytokine analyses. Pancreas tissue was resected and weighed, and a section ([…]) snap frozen and analysed for quantification of compound in pancreas sample. A section ([…]) was processed for measurement of MPO activity, IL-33 and TGF-B levels via ELISA. The remainder was fixed in formalin and embedded in paraffin wax. H&E staining was carried out and section assessed using Schmidts standard scoring system, examining: edema, inflammatory infiltration, parenchymal necrosis, haemorrhage. Massons' Trichrome staining was carried out and area covered by fibrotic tissue quantified digitally using QuPath software. Terminal serum samples was used to assess blood chemistry using an IdeXX CHEM15 and LYTE4 clip (4 animals per treatment group).
Histopathology assessment of pancreatic injury based on 4 criteria: Oedema, Inflammatory infiltration, Parenchymal necrosis, Haemorrhage and scored as described below.
Schmidt score is the evaluation of the efficacy of the compounds based on the four histopathology criteria as described in the table below.

Where [1] appears, read: second experiment, IV, 15 mg/kg, Pirfenidone 100 mg/kg.
The mark [2] stands for this setting: 1st experiment, caerulein induced, 15 mg/kg IV, Ib-010a and IVc-059a 150 mg/kg PO, Pirfenidone 40 mg/kg IV.
The mark [3] stands for this setting: 1st experiment, 15 mg/kg IV, Ib-010a and IVc-059a 150 mg/kg PO, Pirfenidone 40 mg/kg IV.

`O=C(O)c1cc(NC(=O)c2cc(O)cc(C(=O)Nc3ccc(O)c(C(=O)O)c3)c2O)ccc1O` [IIc-007a, 5-(3-(3-carboxy-4-hydroxyphenylaminocarbonyl)-2,5-dihydroxybenzamido)-2-hydroxy benzoic acid]: under setting [1], the Amylase was 45.325 mU/mL, the IL-33 was found to be 340 ± 211 ng/mL, the Lipase stood at 6.481 mU/mL and the MPO is on record as 2.74 ± 0.76 U/mg. For the same compound, under setting [1], the “Schmidt Score” value is 8.3 ± 1.6, the TGF-B is 500 ± 195 ng/mL and the “Trichome staining (Fibrosis % area)” value stood at 1.821 ± 1.12 % area.

`O=C(O)c1cc(O)c(CN(Cc2cc(O)c(C(=O)O)cc2O)Cc2cc(O)c(C(=O)O)cc2O)cc1O` [IIIc-061a, Tris(4-carboxy-2,5-dihydroxyphenylmethyl)amine]: under setting [2], the “Acinar cell necrosis (group mean score)” value is given as 0.5, the “Haemorrhage (group mean score)” value stood at 1.0, the “Interstitial oedema (group mean score)” value is 1.0 and the “Mean terminal BW (% of initial)” value is 91.4 % of initial. Besides, under setting [2], the “Mean terminal pancreas weight” value was 0.086 g, the “Pancreas histopathology observations (H&E)” value is reported as “Mild oedema observed; also recorded: Mild haemorrhage observed; also recorded: Mild acinar cell necrosis observed; also recorded: Mild leukocyte infiltration observed; also recorded: Normal islet morphology observed” and the “Schmidt Score (H&E)” value is 3.5. Also, under setting [3], the “Pancreas IL33 level” value was 177 ± 80, the “Pancreas MPO activity” value is recorded as 2.13, the “Pancreas TGF-B level” value was 295 ± 146 and the “Serum IL33 level” value is reported as 33.72. Besides, under setting [3], the “Serum TGF-B level” value was determined as 4.65, the Serum amylase level is reported as 38.38 and the Serum lipase level was 9.79. Under “first experiment, IV”, the “TGF-B levels in pancreas” value is “decreased significantly” and the “pancreatic tissue levels of IL33” value is on record as “significant decrease”. Further, the “Global Schmidt score” value (first experiment, vs caerulein control animals) was “especially improved”. For the same compound, where the note is “second experiment, H&E sections”, the Schmidt Score result is recorded as “lower scores than the positive control pirfenidone”. Also, for the setting “second experiment”, the “Lipase activity in serum” value was “significantly lower than that in vehicle treated animals”. The “MPO activity in pancreatic tissue” value (second experiment, vs induced vehicle treated controls) is on record as “significantly lower than induced vehicle treated controls”.

On to `O=C(O)c1cc(NC(=O)c2cc(O)c(C(=O)Nc3ccccc3-c3nnn[nH]3)cc2O)ccc1O` [Ic-001a-Tz/004a, 5-(4-(2-(1H-tetrazol-5-yl)phenylaminocarbonyl)-2,5-dihydroxybenzamido)-2-hydroxy benzoic acid], for which, under setting [2], the “Acinar cell necrosis (group mean score)” value worked out at 1.5, the “Haemorrhage (group mean score)” value turned out to be 1.0, the “Interstitial oedema (group mean score)” value is on record as 1.6 and the “Leukocyte infiltration (group mean score)” value is reported as 2.8. In addition, under setting [2], the “Mean terminal BW (% of initial)” value was 93.5 % of initial, the “Mean terminal pancreas weight” value worked out at 0.104 g, the “Pancreas histopathology observations (H&E)” value is recorded as “Oedema observed throughout pancreas; also recorded: Mild haemorrhage observed; also recorded: Acinar cell necrosis observed; also recorded: Leukocyte infiltration throughout; also recorded: Disruption to the basophilic region” and the “Schmidt Score (H&E)” value was found to be 6.9. Also, under setting [3], the “Pancreas IL33 level” value is 180 ± 54, the “Pancreas MPO activity” value is 2.15, the “Pancreas TGF-B level” value stood at 369 ± 195 and the “Serum IL33 level” value is reported as 35.43. Further, under setting [3], the “Serum TGF-B level” value is given as 8.99, the Serum amylase level is listed as 36.51 and the Serum lipase level amounted to 8.21. Besides, the “pancreatic tissue levels of IL33” value (first experiment, IV) was “significant decrease”.

Under setting [1], `O=C(O)c1cc(NC(=O)c2cc(O)c(C(=O)O)cc2O)cc(C(=O)O)c1` [Ia-015a, 5-(4-carboxy-2,5-dihydroxybenzamido)isophthalic acid] gave an Amylase of 51.669 mU/mL, an IL-33 of 398 ± 148 ng/mL, a Lipase of 5.31 mU/mL and an MPO of 2.68 ± 0.6 U/mg. Under setting [1], the “Schmidt Score” value was found to be 4.6 ± 0.8, the TGF-B turned out to be 547 ± 373 ng/mL and the “Trichome staining (Fibrosis % area)” value turned out to be 1.704 ± 1.621 % area. The “Lipase activity in serum” value (second experiment) is listed as “significantly lower than that in vehicle treated animals”.
